According to patent US20080213817A1, “Enhancement of Th2-Dependent and Inflammatory Response” (priority 2004, published 2008):

What was measured:
Assay type in all cases: cell-based, mice
c-Jun and JunB = test: Immunoblotting of Jun protein levels in activated T cells
Method: (§1) JNK1 was immunoprecipitated from 30 μg cell lysate with anti-JNK1 antibody (333, PharMingen) and its kinase activity measured by an immunecomplex kinase assay with GST-c-Jun(1-79) as a substrate (Xia et al. (2000) Proc Natl Acad Sci USA 97, 5243-5248). c-Jun phosphorylation was quantitated using a PhosphoImager (Bio-Rad) and gel loading was normalized by immunoblotting with a monoclonal antibody against JNK1/2 (666, PharMingen). ERK activation was examined by immunoblotting of gel separated whole cell extracts (100 μg) with an antibody specific for phospho-ERK (Cell Signaling). Polyclonal antibody against MEKK1 was prepared as described (Gallagher et al. (2002) J Biol Chem 277, 45785-45792). Antibodies against c-Jun, JunB, GATA3, c-Maf, NFATc1, NFATc2, p16, and p65 (RelA) were all from Santa Cruz Biotechnology. Polyclonal antibody against Itch was prepared as described (Qiu et al. (2000) J Biol Chem 275, 35734-35737). The levels of various proteins were quantitated by BioRad Quantity One software.
(§2) The levels of Itch and actin were examined was measured by immunoblotting. […] Cells were chased with nonradioactive amino acids for the indicated times, at which they were lysed and Itch expression levels were determined by radioimmunoprecipitation. The levels of [^35S]-labeled Itch were quantitated using a PhosphoImager. […] JNK activity was measured by an immunecomplex kinase assay. Phosphorylated c-Jun was detected by autoradiography and quantitated using a PhosphoImager. […]
Inactivation of MEKK1 or JNK Slows Down JunB and c-Jun Turnover • A. Thymocytes and CD4^+ T cells from WT and Mekk1^ΔKD were stimulated with anti-CD3+anti-CD28 for 24 hrs. Cell extracts were prepared and the levels of various transcription factors were measured by immunoblotting. The relative levels of the different proteins determined by densitometry are indicated. […] The mRNA levels of Jun family members and c-Fos were measured by RNase protection. […] Cell lysates were prepared and immunoprecipitated with various antibodies as indicated, separated by SDS-PAGE and analyzed by autoradiography. […]

WT thymocytes = test: Thymocyte proliferation, [3H] thymidine incorporation; settings: WT thymocytes
Method: For proliferation assays, purified thymocytes or CD4^+ or CD8^+ splenic T cells (2×10^5 cells/well) were cultured in round bottom 96-well plates (Costar) precoated with anti-CD3 antibody (BD Pharmingen) in the absence or presence of soluble anti-CD28 antibody (BD Pharmingen). After 3 days, cultures were pulsed for 6 hrs with 1 μCi [^3H] thymidine (New England Nuclear) per well and cells were harvested. [^3H] thymidine incorporation was measured by scintillation counting. When indicated, either recombinant IL-4 or neutralizing anti-IL-4 antibody (R&D Systems) were added prior to [^3H] thymidine labeling.
For proliferation assays, purified thymocytes (2×10^5 cells/well) were cultured in round bottom 96-well plates (Costar) precoated with anti-CD3 antibody (BD Pharmingen) in the absence or presence of soluble anti-CD28 antibody (BD Pharmingen). […] [^3H] thymidine incorporation was measured by scintillation counting. […]
The effect of the Mekk1^KD mutation on activation of JNK and other MAPKs in response to TCR and CD28 engagement was investigated. • A. WT and Mekk1^KD thymocytes were incubated with anti-CD3 (10 μg/ml) and anti-CD28 (1 μg/ml). At the indicated times, JNK activity was measured by an immunecomplex kinase assay using GST-c-Jun(1-79) as the substrate. Phosphorylated c-Jun was detected by autoradiography and quantitated using a PhosphorImager. […] Cell proliferation was measured as above. […]

Itch = test: Immunoblotting of Itch level in activated thymocytes; settings: activated WT thymocytes
Method: as §1, with “Polyclonal antibody against Itch was prepared as described (Qiu et al. (2000) J Biol Chem 275, 35734-35737).” left out
as §2

Structure (SMILES)	increase in c-Jun and JunB expression (c-Jun and JunB; activated WT thymocytes (anti-CD3+anti-CD28), 24 hrs, SP600125 0.5 μM, JNKI-1 25 μM) [fold]	increase in [3H] thymidine incorporation (WT thymocytes; different concentrations of anti-CD3+anti-CD28, increasing amounts of inhibitor, 72 hrs)	decrease in Itch expression (Itch; 24 hrs, 0.5 μM) [fold]	c-Jun and JunB expression (in words) (c-Jun and JunB; WT CD4^+ T cells stimulated with anti-CD3 and anti-CD28, 24 hours)	effect on c-Jun and JunB expression (in words) (c-Jun and JunB; activated WT thymocytes)	effect on [3H] thymidine incorporation (in words) (WT thymocytes; anti-CD3+anti-CD28)	effect on Itch expression (in words) (Itch)
Oc1c2ccccc2c2c3c(cccc13)N=N2 [SP600125]	4	at least 2 fold	2	–	–	–	–
Oc1ccc(-c2nc(-c3ccncc3)c(-c3ccc(F)cc3)[nH]2)cc1 [SB202190]	–	–	–	No such effects	Negligible such effects	did not produce such an effect	Negligible such effects
